In patent publication US20110098241A1, “RAPAMYCIN ANALOGS AS ANTI-CANCER AGENTS” (PONIARD PHARMACEUTICALS, INC., priority 2008, published 2011):

Molecular target: T1, mTOR (UniProt P42346+P62942)
T1 construct: purchased Calbiochem CBA055
Assay: mTOR Assay Screening Protocol (K-LISA mTOR Activity Kit, inhibitor with FKBP12)
Type: biochemical
Conditions: mTOR Standard pre-incubated with inhibitor and FKBP12 (35-37 ug/ml); p70S6K-T389 phosphorylation ELISA, absorbance at 450 nm
Description: mTOR Assay Screening Protocol
Kit: Calbiochem Cat. No. CBA055: K-LISA mTOR Activity Kit
The following table provides reagent preparation instructions to obtain the volume of Working Solutions (WS) required for 10 wells. Volumes can be scaled to process more samples and provide overage for pipetting error.
Reagent Volume (per 10-well strip) Composition: mTOR Substrate WS: 1 ml Dilution factor: 1:400 FKBP12: Sigma F5398 FK-Binding Protein human, recombinant, expressed in Escherichia coli
A. Protocol for mTOR Kinase Activity and Inhibitor Screening: 1. Remove the required number of strips from the Glutathione-Coated 96-Well Plate and place them in the 96-well frame. 2. Add 100 μl mTOR Substrate WS to each well and incubate for 1 h at room temperature. 3. When performing inhibitor screening/testing, pre-incubate 50 μl mTOR Standard (from step 2) with test inhibitor or wortmannin in a separate tube on ice for 20 min (for example 50 μl mTOR Standard with 1 μl Woltmannin, 50×). This pre-incubation can be carried out during the incubation in step 2. • For inhibitor testing: weigh out inhibitor and resuspend in DMSO to a concentration of 5 mM prior to addition to assay • Test concentrations for inhibitors in assay ranged from 10 uM-0.0048 uM (final concentrations) • Inhibitor reaction contained: mTOR Standard, inhibitor (at indicated concentration) and FKBP12 (at 35-37 ug/ml) • Dilutions of inhibitors made in TBS • Controls for assay include: mTOR Standard only, mTOR Substrate only (blank), FKBP12+mTOR Standard (no inhibitor), inhibitor compound+mTOR Standard (no FKBP12), 4. Aspirate contents of the wells and wash each well of the Glutathione-Coated 96-Well Plate with 200 μl TBS. Empty the contents of the wells into the sink and dry the wells by tapping the inverted plate on paper towels. Repeat for a total of 3 washes. 5. Add the following components to each well in the specified order: […]
mTOR Standard or mTOR Sample* (diluted to assay range with phosphate-free buffer or water): 50 μl 2× Kinase Assay Buffer WS: 50 μl
*Pre-incubated with inhibitor in step 3 or without inhibitor 6. Cover the plate with the Plate Sealer, mix with a plate shaker or equivalent for 30 seconds, and incubate for 30 minutes at 30° C. 7. Stop the kinase reaction by adding 10 μl Kinase Stop Solution to each well. (Reaction may also be stopped simply by discarding the contents of the wells). 8. Aspirate the contents of each well and wash with 200 μl Plate Wash (1×). Gently agitate the plate using a plate shaker or equivalent for 5 min. Empty the contents of the wells into the sink and dry the wells by tapping the inverted plate on paper towels. Wash the plate 2 more times without shaking the plate. 9. Add 100 μl Anti-p70S6K-T389 WS to each well, cover the plate with the Plate Sealer, and incubate 1 h at room temperature. 10. Wash the plate 4 times as outlined in step 8 without shaking the plate. 11. Add 100 μl HRP-Antibody Conjugate WS to each well, cover the plate with the Plate Sealer, and incubate 1 h at room temperature. 12. Wash the plate as outlined in step 10. 13. Add 100 μl TMB Substrate to each well, cover the plate with the Plate Sealer, and incubate 5-20 min at room temperature. 14. […] 15. Analyze data using Microsoft Excel and GraphPad Prism software.

T1 sequence (P62942 2-108 limits assumed, other chains not shown): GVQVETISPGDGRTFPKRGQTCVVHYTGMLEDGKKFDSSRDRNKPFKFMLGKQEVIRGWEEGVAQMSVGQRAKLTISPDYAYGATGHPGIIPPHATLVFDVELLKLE

SMILES | IC50
CO[C@H]1C[C@@H]2CC[C@@H](C)[C@@](O)(O2)C(=O)C(=O)N2CCCC[C@H]2C(=O)O[C@H]([C@H](C)C[C@@H]2CC[C@@H](OC(=O)NS(=O)(=O)N(C)C)[C@H](OC)C2)CC(=O)[C@H](C)/C=C(\C)[C@@H](O)[C@@H](OC)C(=O)[C@H](C)C[C@H](C)/C=C/C=C/C=C/1C [Example 2, 42-O-[Dimethylaminosulfonylcarbamyl]-rapamycin] | 30 nM
CO[C@H]1C[C@@H]2CC[C@@H](C)[C@@](O)(O2)C(=O)C(=O)N2CCCC[C@H]2C(=O)O[C@H]([C@H](C)C[C@@H]2CC[C@@H](OC(=O)N3CCN(C)CC3)[C@H](OC)C2)CC(=O)[C@H](C)/C=C(\C)[C@@H](O)[C@@H](OC)C(=O)[C@H](C)C[C@H](C)/C=C/C=C/C=C/1C [Example 6, 42-O-[4-Methylpiperazine-1-carboxy]-rapamycin] | 2500 nM
CO[C@H]1C[C@@H]2CC[C@@H](C)[C@@](O)(O2)C(=O)C(=O)N2CCCC[C@H]2C(=O)O[C@H]([C@H](C)C[C@@H]2CC[C@@H](OC[Si](C)(C)C)[C@H](OC)C2)CC(=O)[C@H](C)/C=C(\C)[C@@H](O)[C@@H](OC)C(=O)[C@H](C)C[C@H](C)/C=C/C=C/C=C/1C [Example 11, 42-O-[Trimethylsilyl-methyl]-rapamycin] | 2300 nM
CO[C@H]1C[C@@H]2CC[C@@H](C)[C@@](O)(O2)C(=O)C(=O)N2CCCC[C@H]2C(=O)O[C@H]([C@H](C)C[C@@H]2CC[C@@H](OCCOC[Si](C)(C)C)[C@H](OC)C2)CC(=O)[C@H](C)/C=C(\C)[C@@H](O)[C@@H](OC)C(=O)[C@H](C)C[C@H](C)/C=C/C=C/C=C/1C [Example 12, 42-O-[2-(Trimethylsilan-methoxy)-ethyl]-rapamycin] | 30 nM
CO[C@H]1C[C@@H]2CC[C@@H](C)[C@@](O)(O2)C(=O)C(=O)N2CCCC[C@H]2C(=O)O[C@H]([C@H](C)C[C@@H]2CC[C@@H](OC(=O)CN3CCC(CCO)CC3)[C@H](OC)C2)CC(=O)[C@H](C)/C=C(\C)[C@@H](O)[C@@H](OC)C(=O)[C@H](C)C[C@H](C)/C=C/C=C/C=C/1C [Example 13, 42-O-[2-(4-(2-Hydroxyethyl)piperidin-1-yl)acetyl]rapamycin] | 70 nM
CO[C@H]1C[C@@H]2CC[C@@H](C)[C@@](O)(O2)C(=O)C(=O)N2CCCC[C@H]2C(=O)O[C@H]([C@H](C)C[C@@H]2CC[C@@H](OC(=O)NCCN3CCOCC3)[C@H](OC)C2)CC(=O)[C@H](C)/C=C(\C)[C@@H](O)[C@@H](OC)C(=O)[C@H](C)C[C@H](C)/C=C/C=C/C=C/1C [Example 16, 42-O-(2-Morpholinoethylaminocarbonyl)-rapamycin] | 300 nM

Further compounds by falling IC50, results first:

IC50 | SMILES
240 nM | CO[C@H]1C[C@@H]2CC[C@@H](C)[C@@](O)(O2)C(=O)C(=O)N2CCCC[C@H]2C(=O)O[C@H]([C@H](C)C[C@@H]2CC[C@@H](OC(=O)CN(CCO)CCO)[C@H](OC)C2)CC(=O)[C@H](C)/C=C(\C)[C@@H](O)[C@@H](OC)C(=O)[C@H](C)C[C@H](C)/C=C/C=C/C=C/1C [Example 14, 42-O-[2-(Bis(2-hydroxyethyl)amino)acetyl]-rapamycin]
210 nM | CO[C@H]1C[C@@H]2CC[C@@H](C)[C@@](O)(O2)C(=O)C(=O)N2CCCC[C@H]2C(=O)O[C@H]([C@H](C)C[C@@H]2CC[C@@H](OC(=O)N3CCC(O)CC3)[C@H](OC)C2)CC(=O)[C@H](C)/C=C(\C)[C@@H](O)[C@@H](OC)C(=O)[C@H](C)C[C@H](C)/C=C/C=C/C=C/1C [Example 15]
140 nM | CO[C@H]1C[C@@H]2CC[C@@H](C)[C@@](O)(O2)C(=O)C(=O)N2CCCC[C@H]2C(=O)O[C@H]([C@H](C)C[C@@H]2CC[C@@H](OCCCS(=O)(=O)N3CCOCC3)[C@H](OC)C2)CC(=O)[C@H](C)/C=C(\C)[C@@H](O)[C@@H](OC)C(=O)[C@H](C)C[C@H](C)/C=C/C=C/C=C/1C [Example 17, 42-O-[3-(Morpholinosulfonyl)propyl]-rapamycin]
110 nM | CO[C@H]1C[C@@H]2CC[C@@H](C)[C@@](O)(O2)C(=O)C(=O)N2CCCC[C@H]2C(=O)O[C@H]([C@H](C)C[C@@H]2CC[C@@H](OC(=O)NS(=O)(=O)N(CCO)CCO)[C@H](OC)C2)CC(=O)[C@H](C)/C=C(\C)[C@@H](O)[C@@H](OC)C(=O)[C@H](C)C[C@H](C)/C=C/C=C/C=C/1C [Example 3, 42-O—[N,N-Bis(2-hydroxyethyl)aminosulfonylcarbamyl]-rapamycin]
70 nM | CO[C@H]1C[C@@H]2CC[C@@H](C)[C@@](O)(O2)C(=O)C(=O)N2CCCC[C@H]2C(=O)O[C@H]([C@H](C)C[C@@H]2CC[C@@H](OC(=O)CN3CCC(O)CC3)[C@H](OC)C2)CC(=O)[C@H](C)/C=C(\C)[C@@H](O)[C@@H](OC)C(=O)[C@H](C)C[C@H](C)/C=C/C=C/C=C/1C [Example 8, 42-O-[2-(4-Hydroxypiperidin-1-yl)acetyl]-rapamycin]
10 nM | CO[C@H]1C[C@@H]2CC[C@@H](C)[C@@](O)(O2)C(=O)C(=O)N2CCCC[C@H]2C(=O)O[C@H]([C@H](C)C[C@@H]2CC[C@@H](OC(=O)NS(=O)(=O)N3CCOCC3)[C@H](OC)C2)CC(=O)[C@H](C)/C=C(\C)[C@@H](O)[C@@H](OC)C(=O)[C@H](C)C[C@H](C)/C=C/C=C/C=C/1C [Example 1, 42-O-[Morpholinosulfonylcarbamyl]-rapamycin]
10 nM | CO[C@H]1C[C@@H]2CC[C@@H](C)[C@@](O)(O2)C(=O)C(=O)N2CCCC[C@H]2C(=O)O[C@H]([C@H](C)C[C@@H]2CC[C@@H](OC(=O)NS(=O)(=O)N3CC[C@@H](O)C3)[C@H](OC)C2)CC(=O)[C@H](C)/C=C(\C)[C@@H](O)[C@@H](OC)C(=O)[C@H](C)C[C@H](C)/C=C/C=C/C=C/1C [Example 4, 42-O—[(R)-3-hydroxypyrrolidin-1-ylsulfonylcarbamyl]-rapamyein]
1 nM | CO[C@H]1C[C@@H]2CC[C@@H](C)[C@@](O)(O2)C(=O)C(=O)N2CCCC[C@H]2C(=O)O[C@H]([C@H](C)C[C@@H]2CC[C@@H](OC(=O)NS(=O)(=O)Nc3ccc(O)cc3)[C@H](OC)C2)CC(=O)[C@H](C)/C=C(\C)[C@@H](O)[C@@H](OC)C(=O)[C@H](C)C[C@H](C)/C=C/C=C/C=C/1C [Example 5, 42-O-[4-Hydroxyanilinsulfonylcarbamyl]-rapamycin]
